Reference: patent publication US20190382827A1, “USE OF MICROBIAL METABOLITES FOR TREATING DISEASES” (Yeda Research and Development Co. Ltd., priority 2015, published 2019)

Tests used:
intestinal microbiota = experiment: 16S analysis of microbiota of mice given metabolites in drinking water; format: in vivo, mouse
Excerpt: Frozen fecal samples were processed for DNA isolation using the MoBio PowerSoil kit according to the manufacturer's instructions. For the 16S rRNA gene PCR amplification, ing of the purified fecal DNA was used for PCR amplification. Amplicons spanning the variable region 1/2 (V1/2) of the 16S rRNA gene were generated by using the following barcoded primers: Fwd 5′-XXXXXXXXAGAGTTTGATCCTGGCTCAG-3′ (SEQ ID NO: 1), Rev 5′-[…]-3′ (SEQ ID NO: 2), where X represents a barcode base. The reactions were subsequently pooled and cleaned (PCR clean kit, Promega), and the PCR products were then sequenced on an Illumina MiSeq in 500 bp paired-end method. The reads were then processed using the QIIME (Quantitative Insights Into Microbial Ecology, www(dot)qiime(dot)org) analysis pipeline as described (Caporaso et al., 2010; Elinav et al., 2011). In brief, fasta quality files and a mapping file indicating the barcode sequence corresponding to each sample were used as inputs, reads were split by samples according to the barcode, taxonomical classification was performed using the RDP-classifier, and an OTU table was created. Closed-reference OTU mapping was employed using the Greengenes database. Rarefaction was used to exclude samples with insufficient count of reads per sample. Sequences sharing 97% nucleotide sequence identity in the V2 region were binned into operational taxonomic units (97% ID OTUs). For beta-diversity, weighted unifrac measurements were plotted according to the two principal coordinates based on 1,000 reads per sample. The OTU tables used for our analyses are made accessible online.

colon explants = format: cell-based, mouse
Description: (F) FACS quantification of propidium iodide positive cells obtained from colon explants incubated for 10 hrs with PBS or taurine.
(F) FACS quantification of propidium iodide positive cells obtained from colon explants incubated for 10 hrs with either PBS, spermine or histamine.

[1] = target: T1, colonic NLRP6 inflammasome (Mus musculus, UniProt Q91WS2); experiment: Metabolites in the drinking water of mice, colonic inflammasome readouts; format: in vivo; settings: for colonic lamina propria hematopoietic cell populations: WT mice drinking for 14 days, FACS; for colonic caspase-1 activation (activated caspase-1 levels): WT mice, drinking water for 14 days
T1 construct: in colon tissue obtained from WT mice drinking taurine for 14 days; from tissue; host or cells: colon of living WT mice (SPF for A4; germ-free for A5)
T1 sequence (Q91WS2 1-869): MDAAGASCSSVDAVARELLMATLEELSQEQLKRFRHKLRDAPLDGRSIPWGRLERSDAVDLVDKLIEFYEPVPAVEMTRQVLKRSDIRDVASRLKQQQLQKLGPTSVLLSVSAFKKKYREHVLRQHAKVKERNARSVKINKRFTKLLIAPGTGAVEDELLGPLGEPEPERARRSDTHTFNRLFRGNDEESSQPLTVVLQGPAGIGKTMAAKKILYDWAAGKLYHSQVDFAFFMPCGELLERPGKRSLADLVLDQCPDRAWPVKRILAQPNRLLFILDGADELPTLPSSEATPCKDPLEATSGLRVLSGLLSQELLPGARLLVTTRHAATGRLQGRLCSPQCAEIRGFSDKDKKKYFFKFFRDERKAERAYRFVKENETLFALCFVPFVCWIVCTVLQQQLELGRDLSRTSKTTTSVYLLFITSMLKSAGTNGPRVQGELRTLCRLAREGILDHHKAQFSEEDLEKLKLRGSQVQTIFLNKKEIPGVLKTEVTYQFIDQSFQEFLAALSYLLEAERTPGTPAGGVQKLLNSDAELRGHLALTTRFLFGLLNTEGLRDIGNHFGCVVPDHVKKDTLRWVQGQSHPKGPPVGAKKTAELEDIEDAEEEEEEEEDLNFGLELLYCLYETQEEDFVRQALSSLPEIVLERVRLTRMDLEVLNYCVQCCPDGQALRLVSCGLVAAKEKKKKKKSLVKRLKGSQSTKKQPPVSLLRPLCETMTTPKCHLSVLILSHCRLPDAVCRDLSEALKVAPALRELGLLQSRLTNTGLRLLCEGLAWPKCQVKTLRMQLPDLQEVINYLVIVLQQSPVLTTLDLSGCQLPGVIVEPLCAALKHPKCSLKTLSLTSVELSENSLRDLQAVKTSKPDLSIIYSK
Excerpt: (A, B) Immunoblot analysis (A) and quantification (B) of pro-caspase-1 (p45) and cleaved caspase-1 (p20) in colon tissue obtained from WT mice drinking taurine for 14 days.
(C) IL-18 production by colon explants obtained from WT mice drinking taurine for 14 days.
(D) Ang4 expression in sorted epithelial cells (CD45^−EpCAM^+) obtained from WT mice drinking taurine for 14 days.
(I) IL-18 production by colon explants from WT, Asc^−/− or Nlrp6^−/− mice drinking taurine for 14 days.
(J, K) Immunoblot analysis (J) and quantification (K) of pro-caspase-1 (p45) and cleaved caspase-1 (p20) in colon tissue obtained from WT mice drinking histamine with or without spermine for 14 days.
Colons were excised and washed thoroughly with PBS, homogenized in RIPA buffer containing protease inhibitors, incubated for 20 min in 4° C. and centrifuged for 20 min, 14,000 rpm at 4° C. Samples were separated on 15% acrylamide gels and transferred onto nitrocellulose membranes. Western blot analysis was performed using anti-caspase 1 p20 polyclonal antibody (Adipogen, AG-20B-0042B-C100) and Goat anti mouse antibody (Jackson ImmunoResearch, 115-035-003). Band density was calculated using ImageJ software.
Concentrations of IL-18 in the serum or culture supernatants were measured using ELISA. Plates were coated over night with IL-18 (MBL, B004-2), incubated for 4 hours with supernatant or serum. Samples were then washed and plates were incubated with anti-mouse IL-18-biotin antibody (D048-6 MBL) for 1 hour and HRP-Avidin (BioLegend) for 1 hour before quantification.
Tissues were preserved in RNAlater solution (Ambion) and subsequently homogenized in Tri Reagent (Fox et al.). RNA was purified according to the manufacturer's instructions. Two microgram of total RNA was used to generate cDNA (HighCapacity cDNA Reverse Transcription kit; Applied Biosystems). RealTime-PCR was performed using gene-specific primer/probe sets (Applied Biosystems) and Kapa Probe Fast qPCR kit (Kapa Biosystems) on a Viia7 instrument (Applied Biosystems). PCR conditions were 95° C. for 20 s, followed by 40 cycles of 95° C. for 3 s and 60° C. for 30 s. Data were analyzed using the deltaCt method with hprt serving as the reference housekeeping gene.
To provide in-vivo validation to the above metabolite activities and to further characterize their effects on the host-microbiome interface, we administered taurine to mice in the drinking water. […] To test this notion directly, either LPS (a known ‘signal I’), taurine, or both were administered to GF WT mice. […] In contrast to taurine, in-vivo administration of histamine and spermine reduced the levels of activated caspase-1 (FIGS. 6J and 6K), while not altering the composition of hematopoietic cells in the lamina propria (FIG. 13D).

Compound	composition of the intestinal microbiota (intestinal microbiota; WT mice)	cell death (colon explants)	colonic lamina propria hematopoietic cell populations [1]	colonic caspase-1 activation (activated caspase-1 levels) [1]	composition of the intestinal microbiota (intestinal microbiota; Asc-/- or Nlrp6-/- mice)	IL-18 induction ([1]; Asc-/- or Nlrp6-/- mice drinking taurine for 14 days)	IL-18 secretion ([1]; colon explants from WT mice drinking for 14 days)	IL-18 mRNA levels ([1]; colon of WT mice drinking for 14 days)	epithelial Ang4 production ([1]; sorted epithelial cells from WT mice drinking for 14 days)
NCCCNCCCCNCCCN [spermine]	induced compositional changes	no change	not altering	reduced	–	–	–	–	–
NCCc1c[nH]cn1 [histamine]	induced compositional changes	no change	not altering	reduced	–	–	–	–	–
NCCS(=O)(=O)O [taurine]	induced compositional changes	–	not accompanied by alterations	marked activation	did not occur	no IL-18 induction	marked activation	not affecting	marked activation
